Values quoted from earlier work as cited in patent US20140030241A1 (NESTEC S.A., priority 2011, published 2014).

Legend:
[1] = system: IgG and IgM response; conditions: rodents
[2] = system: Candida albicans; conditions: rodents on nucleotide free diet, Candida albicans challenge
[3] = enters circulation without being metabolized by the liver
[4] = system: Splenic lymphocytes; conditions: rodents on nucleotide free diets, additions to the diet

| SMILES | IgG response [1] | survival time [2] | also measured |
| --- | --- | --- | --- |
| Nc1ncnc2c1ncn2[C@@H]1O[C@H](COP(=O)(O)O)[C@@H](O)[C@H]1O [AMP, 5-Adenosine Monophosphate] | increased IgG response | – | – |
| Nc1nc2c(ncn2[C@@H]2O[C@H](COP(=O)(O)O)[C@@H](O)[C@H]2O)c(=O)[nH]1 [GMP, 5′-Guanosine Monophosphate] | increased IgG response | – | IgM response [1]: increase IgM response |
| O=c1ccn([C@@H]2O[C@H](COP(=O)(O)O)[C@@H](O)[C@H]2O)c(=O)[nH]1 [UMP, 5′-Uracil Monophosphate] | increased IgG response | – | – |
| Nc1ncnc2nc[nH]c12 [adenine] | – | not | – |
| NC(=O)NCCC[C@H](N)C(=O)O [citrulline] | – | – | conversion to arginine in the kidneys [3]: almost complete |
| O=c1cc[nH]c(=O)[nH]1 [uracil] | – | increase survival time | suppressed cell-mediated immune responses (proliferation to mitogens, IL-2 production, IL-2 receptor and Lyt-1 markers, delayed cutaneous hypersensitivity) [4]: largely reversed |
